Assay results from patent US20210077370A1, “Use of compositions comprising dihydroxyacetone for the protection of skin or hair against infrared irradiation” (Merck Patent GmbH, priority 2019, published 2021).

Tests used:
MMP1 = MMP1 immunostaining on human skin explants after IR-A irradiation; format: cell-based
Experimental: (§1) The product tested is a solution of 2% DHA in water. This was done to avoid formulation effects of auxiliary ingredients.
(§2) Human skin explants were prepared on an abdominoplasty coming from a person (Fitzpatrick skin phototype II-Ill). The explants were kept in survival in BEM culture medium (BIO-EC's Explants Medium) at 37° C. in a humid, 5%-CO2 atmosphere.
(§3) On day 0 (D0), day 3 (D3) and day 4 (D4; 3 hours before IR irradiation), day 5 (D5) and day 6 (D6), the product was applied topically followed by 10 minutes of drying. […] The culture medium was half renewed (1 ml/well) on day 3 and day 5. Irradiation of the explants were done using an infrared lamp (Dr FISCHER 1000 W, 235V, 2500K, 760-3000 nm), for 5040 s (720 J/cm^2). Water filter and IR760 filter were also used to have the following IR range of 700 nm to 1150 nm. The unirradiated batches were kept in HBSS (Hank's Balanced Saline Solution) in the dark. At the end of the irradiation, all the explants were put back in 2 ml of fresh BEM culture medium.
(§4) The explants temperature was measured before and after IR-A irradiation. To avoid temperature-driven side-effects, the explants temperature was maintained at 37° C. (max. 39° C.) by specially adapted refreshing system.
The immunostaining was performed using an automated slide processing system (Autostainer, Dako) and assessed by microscopical observation.

tropoelastin = assay: Tropoelastin immunostaining on human skin explants after IR-A irradiation; format: cell-based; details: papillary dermis
Experimental: as §1, §2, §3, §4
The nuclei were counterstained by propidium iodide.
The immunostaining was assessed by microscopical observation.

O=C(CO)CO [DHA, 1,3-dihydroxy-2-propanone]
MMP-1 decrease versus irradiated blank, epidermis (MMP1; epidermis, IR-A irradiated, day 5, p<0.01): 65%
MMP1 in the epidermis (% surface) (MMP1; living epidermis, IR-A irradiated explant + product applied topically, day 5): 8.4 % surface
protection of the explants after irradiation to IR-A (tropoelastin) (tropoelastin; day 7): excellent protection
Tropoelastin levels after IR-A irradiation and DHA treatment versus blank untreated explant (tropoelastin; day 7, statistically not different (p>0.1)): comparable to those of blank untreated explant
